Data taken from PMC9916658, “Design and Synthesis of New Quinazolin-4-one Derivatives with Negative mGlu7 Receptor Modulation Activity and Antipsychotic-Like Properties” (International Journal of Molecular Sciences, 2023).

What was measured:
human mGlu4 receptor = target: T1, human mGlu4 receptor (Homo sapiens, UniProt Q14833); experiment: mGlu4 receptor selectivity, cAMP accumulation screening at 10 µM; type: cell-based
T1 construct: expressed in transfected cells; host or cells: T-REx 293 (tetracycline-inducible)
Protocol: The cell lines with the tetracycline-inducible expression of human metabotropic receptors 4, 7, and 8 were described in detail by Chruścicka et al. (mGlu4 receptor NM_000841, mGlu7 receptor NM_000844.2, and mGlu8 receptor NM_000845). Cells were grown under standard cell culture conditions (37 °C, 5% CO2) in DMEM supplemented with 10% tetracycline-free FBS. The expression was induced through the addition of tetracycline to the culture medium at 0.75 μg/mL.
The determination of the intracellular cAMP through homogeneous time-resolved fluorescence (HTRF) was described in detail previously. […] The intracellular concentration of cyclic AMP was measured by means of a cAMP Gi HTRF kit from Cisbio, according to the manufacturer’s instructions. After 1 h of incubation at room temperature, the fluorescence at 620 nm and 665 nm was read (Tecan Infinite M1000). The results were calculated as the 665 nm/620 nm ratio multiplied by 10^4. […] Data were analyzed using GraphPad Prism version 5.04 for Windows (GraphPad Software, San Diego, USA).
Firstly, all compounds were screened at 10 μM using three cell lines expressing the mGlu4/7/8 receptor to evaluate selectivity. […] For compounds that passed the screening procedure, the dose–response curve in the presence of LSP4-2022 in 5 μM was evaluated compared to reference NAM ADX71743. […]

[1] = system: recognition index in mice; experiment: Novel object recognition test; type: in vivo
Protocol: This procedure was adapted from and performed as described in a previous paper. Habituation, training and test trials were performed in a black plastic rectangular arena (40 × 30 × 35 cm) illuminated with a light intensity of 335 lux. During the habituation trial (2 consecutive days), each animal was allowed to explore the arena for 10 min. The next day, during the training trial (T1), mice were placed in the arena and were presented with two identical objects (red glass cylinders; 6.5 cm in diameter and 4.5 cm high) for 5 min. After 1 h, animals were placed back into the arena for a 5 min test trial, during which one of the previously presented familiar objects was replaced with a novel object (a transparent glass elongated sphere-like object with an orange cap; 5.5 cm in diameter and 8.5 cm high). Time spent exploring (i.e., sniffing or touching) the familiar (Tfamiliar) and novel (Tnovel) objects was measured by a trained observer, and the recognition index (%) was calculated for each mouse [(Tnovel − Tfamiliar)/(Tfamiliar + Tnovel)] “×” 100.

[2] = system: prepulse inhibition in rats; experiment: Prepulse inhibition test; type: in vivo
[3] = system: MK-801-induced hyperactivity in mice; experiment: MK-801-induced hyperactivity; type: in vivo; conditions: mice, 2.5, 5, or 10 mg/kg
Protocol: The locomotor activity was recorded individually for each animal in locomotor activity cages with modifications. […] After 30 min, all of the mice were injected i.p. with MK-801 at 0.35 mg/kg and once again placed in the same cage. From then on, the ambulation scores were counted for 60 min. All of the groups were compared with the MK-801 control group. The experiment also included a control group treated with NaCl only.

naïve mice = experiment: Spontaneous locomotor activity of naïve mice; type: in vivo; conditions: compound alone
[4] = system: animal models of schizophrenia; conditions: cited from earlier work

T1 sequence (Q14833 33-912): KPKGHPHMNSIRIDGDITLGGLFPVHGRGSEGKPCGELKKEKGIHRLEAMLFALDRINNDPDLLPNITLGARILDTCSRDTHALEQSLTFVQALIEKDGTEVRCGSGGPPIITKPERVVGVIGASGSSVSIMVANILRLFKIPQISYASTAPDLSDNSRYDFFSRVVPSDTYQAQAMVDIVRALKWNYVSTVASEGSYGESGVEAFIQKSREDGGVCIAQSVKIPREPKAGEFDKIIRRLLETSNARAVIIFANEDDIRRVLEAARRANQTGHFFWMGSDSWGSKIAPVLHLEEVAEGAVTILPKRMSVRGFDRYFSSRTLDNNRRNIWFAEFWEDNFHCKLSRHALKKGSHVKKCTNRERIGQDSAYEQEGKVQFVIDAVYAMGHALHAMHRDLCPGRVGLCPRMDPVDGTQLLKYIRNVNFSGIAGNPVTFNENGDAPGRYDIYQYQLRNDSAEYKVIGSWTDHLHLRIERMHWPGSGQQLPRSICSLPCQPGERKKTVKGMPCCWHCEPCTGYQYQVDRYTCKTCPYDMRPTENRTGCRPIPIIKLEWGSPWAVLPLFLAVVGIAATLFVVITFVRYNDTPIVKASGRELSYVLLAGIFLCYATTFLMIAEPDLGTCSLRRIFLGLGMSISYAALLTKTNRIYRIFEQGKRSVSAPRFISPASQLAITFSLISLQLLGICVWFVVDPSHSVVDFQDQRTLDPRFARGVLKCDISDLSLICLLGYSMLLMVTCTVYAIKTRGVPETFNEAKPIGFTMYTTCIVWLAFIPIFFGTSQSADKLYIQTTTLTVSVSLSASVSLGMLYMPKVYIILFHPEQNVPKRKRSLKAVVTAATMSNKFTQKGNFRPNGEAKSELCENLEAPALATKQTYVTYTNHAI

Cn1c(-c2ccccc2Cl)nc2ccc(-c3ccccc3)cc2c1=O [ALX-065, 2-(2-chlorophenyl)-3-methyl-6-phenylquinazolin-4(3H)-one]
mGlu4 NAM activity (human mGlu4 receptor; at 10 µM): 19.6%

COc1cccc(-c2ccc3nc(-c4ccccc4Cl)n(C)c(=O)c3c2)c1OC [ALX-171, 2-(2-chlorophenyl)-6-(2,3-dimethoxyphenyl)-3-methylquinazolin-4(3H)-one]
selectivity over mGlu4 (human mGlu4 receptor; group III mGlu receptors): selective
MK-801-induced decrease in the recognition index (NOR) ([1]; mice, 1, 2.5, and 5 mg/kg): ameliorated
recognition index, compound alone (NOR) ([1]; naïve mice): no significant impact
MK-801-induced decrease of prepulse inhibition ([2]; any of the investigated doses): no effect
disturbance of the PPI response, compound alone ([2]; highest investigated dose 10 mg/kg): ~ 50%
MK-801-induced increase in locomotor activity [3]: not able to reverse
spontaneous locomotor activity (naïve mice): no effect

CCc1nc2c(o1)CC(c1ccc(C)cc1C)CC2=O (stereo not shown) [ADX71743, reference compound]
DOI-induced head twitches [4]: active
MK-801-induced disruptions in social interaction [4]: active
cognitive impairment in novel object recognition [4]: active
prepulse inhibition (PPI) [4]: active
activity in animal models of schizophrenia ([4]; mGlu7 NAMs): antipsychotic activity
